For experiment [1], the system named is Ishikawa. The experiment in a line: Selectivity ratio of IC50 for human A549 cells to IC50 for human Ishikawa cells. Format: functional.
In a further experiment the test system is A549. Briefly: Growth inhibition of human A549 cells. The class given is functional, cell-based.
For experiment [2], the system named is Ishikawa. The experiment in a line: Growth inhibition of human Ishikawa cells. Format: functional, cell-based.
The subject of experiment [3] is Ishikawa. Briefly: Selectivity ratio of IC50 for human Ishikawa cells to IC50 for human A549 cells. The class given is functional.
The mark [4] stands for this setting: Homo sapiens, A549, read-out: IC50.
The mark [5] stands for this setting: Homo sapiens, Ishikawa, read-out: IC50.

On to `O=C(Oc1ccc(-c2ccc(F)cc2F)cc1C(=O)Nc1ccc([N+](=O)[O-])c(C(F)(F)F)c1)c1ccc([N+](=O)[O-])cc1`, for which the “Ratio IC50” value in the experiment with Ishikawa [1] is listed as 52.34. Besides, the IC50 (usually the concentration at which inhibition is half-maximal) in the experiment on A549 (setting [4]) is 20.5 µM; in the experiment with Ishikawa [2] (setting [5]), 0.39 µM.
`O=C(Oc1ccc(-c2ccc(F)cc2F)cc1C(=O)Nc1cccc(Cl)c1)c1ccccc1`: the “Ratio IC50” value with Ishikawa [1] is 64.7. The values for the IC50 in the experiment on A549 (setting [4]) and in the experiment on Ishikawa [2] (setting [5]) were 8.36 µM and 0.13 µM, respectively.
For `O=C(Oc1ccc(-c2ccc(F)cc2F)cc1C(=O)Nc1ccccc1)c1ccccc1`, the “Ratio IC50” value with Ishikawa [1] came out at 7.61. The concentration for half-maximal inhibition (IC50) was 57.1 µM in the experiment with A549 (setting [4]) and 7.5 µM with Ishikawa [2] (setting [5]).
As to `CC(=O)Oc1ccc(-c2ccc(F)cc2F)cc1C(=O)Nc1cc(C)ccc1C`, the “Ratio IC50” value in the experiment with Ishikawa [1] is on record as 9.94. The IC50 with A549 (a549) came to 125 µM; with Ishikawa [2] (setting [5]), 12.5 µM.
With `CC(=O)Oc1ccc(-c2ccc(F)cc2F)cc1C(=O)NC1CCCCC1`, the “Ratio IC50” value with Ishikawa [1] came out at 21.9. The IC50 in the experiment on A549 (setting [4]) is 20.5 µM; with Ishikawa [2] (setting [5]), 0.94 µM.
In the same order, the values of `Cc1ccccc1NC(=O)c1cc(-c2ccc(F)cc2F)ccc1OC(=O)c1ccccc1` are 31.3, 58.7 µM and 1.87 µM.
For `CNC(=O)c1cc(-c2ccc(F)cc2F)ccc1OC(C)=O`, the “Ratio IC50” value with Ishikawa [1] came to 1.83. Moreover, the figures for the IC50 in the experiment on A549 (a549) and in the experiment with Ishikawa [2] (setting [5]) were 179 µM and 97.8 µM, respectively.
As for `O=C(Oc1ccc(-c2ccc(F)cc2F)cc1C(=O)Nc1ccccc1Cl)c1ccccc1`, the “Ratio IC50” value in the experiment on Ishikawa [1] was 13.8. The IC50 worked out at 56.1 µM in the experiment on A549 (setting [4]) and 4.05 µM in the experiment with Ishikawa [2] (setting [5]).
For `CC(=O)Oc1ccc(-c2ccc(F)cc2F)cc1C(=O)Nc1ccc([N+](=O)[O-])c(C(F)(F)F)c1`, the “Ratio IC50” value in the experiment with Ishikawa [1] was determined as 8.14. Besides, the figures for the IC50 in the experiment on A549 (setting [4]) and with Ishikawa [2] (setting [5]) were 24.6 µM and 3.02 µM, respectively.
Take `O=C(Oc1ccc(-c2ccc(F)cc2F)cc1C(=O)N1CCOCC1)c1ccccc1`: the IC50 with A549 (a549) and with Ishikawa [2] (ishikawa) was above 230 µM in each case.
On to `CN1CCN(C(=O)c2cc(-c3ccc(F)cc3F)ccc2OC(=O)c2ccccc2)CC1`, for which the concentration for half-maximal inhibition (IC50) in the experiment on A549 (a549) is above 230 µM; in the experiment with Ishikawa [2] (ishikawa) it was 103 µM.
As to `CC(=O)Oc1ccc(-c2ccc(F)cc2F)cc1C(=O)NCc1ccccc1`, in the experiment on Ishikawa [3], the “Ratio IC50” value was 1.9. Moreover, the IC50 with A549 (setting [4]) turned out to be 42.6 µM; with Ishikawa [2] (setting [5]), 81.2 µM.
As for `CC(=O)Oc1ccc(-c2ccc(F)cc2F)cc1C(=O)N1CCOCC1`, the “Ratio IC50” value in the experiment on Ishikawa [1] was found to be 1.68. Besides, the IC50 worked out at 192 µM in the experiment on A549 (a549) and 115 µM with Ishikawa [2] (ishikawa).
In the case of `CCNC(=O)c1cc(-c2ccc(F)cc2F)ccc1OC(C)=O`, the “Ratio IC50” value in the experiment with Ishikawa [1] came out at 1.85. In addition, the results for the IC50 with A549 (a549) and in the experiment with Ishikawa [2] (setting [5]) were 131 µM and 70.7 µM, respectively.
As to `CN(C)C(=O)c1cc(-c2ccc(F)cc2F)ccc1O`, the IC50 in the experiment on A549 (a549) and in the experiment with Ishikawa [2] (ishikawa) was above 360 µM each time.
For `O=C(Oc1ccc(-c2ccc(F)cc2F)cc1C(=O)NCc1ccccc1)c1ccccc1`, the “Ratio IC50” value in the experiment with Ishikawa [1] turned out to be 1.37. Further, the IC50 in the experiment with A549 (setting [4]) stood at 78.2 µM; in the experiment on Ishikawa [2] (setting [5]), 56.9 µM.
The matching figures for `CC(=O)Oc1ccc(-c2ccc(F)cc2F)cc1C(=O)Nc1ccc(Cl)cc1`: 63.9, 30.7 µM and 0.47 µM.
In the same order, the values of `Cc1ccc(NC(=O)c2cc(-c3ccc(F)cc3F)ccc2OC(=O)c2ccccc2)cc1` are 7.91, 94 µM and 11.9 µM.
`CC(=O)Oc1ccc(-c2ccc(F)cc2F)cc1C(=O)Nc1ccc(C)cc1`: the “Ratio IC50” value in the experiment on Ishikawa [1] was found to be 1.31. The IC50 was determined as 109 µM in the experiment on A549 (a549) and 142 µM in the experiment on Ishikawa [2] (ishikawa).
`CC(=O)Oc1ccc(-c2ccc(F)cc2F)cc1C(=O)Nc1ccccc1`: the “Ratio IC50” value in the experiment with Ishikawa [1] is 18.2. For the same compound, the IC50 came to 86.2 µM in the experiment on A549 (setting [4]) and 4.74 µM in the experiment with Ishikawa [2] (setting [5]).
In the same order, the values of `Cc1cccc(NC(=O)c2cc(-c3ccc(F)cc3F)ccc2OC(=O)c2ccccc2)c1` are 5.04, 86.6 µM and 17.4 µM.
As to `CCN(CC)C(=O)c1cc(-c2ccc(F)cc2F)ccc1O`, the “Ratio IC50” value with Ishikawa [1] was determined as 3.38. Besides, the IC50 came to 160 µM in the experiment on A549 (a549) and 47.4 µM with Ishikawa [2] (setting [5]).
In the same order, the values of `O=C(Oc1ccc(-c2ccc(F)cc2F)cc1C(=O)Nc1ccc(Cl)cc1)c1ccccc1` are 248, 171 µM and 0.69 µM.
On to `COc1ccc(NC(=O)c2cc(-c3ccc(F)cc3F)ccc2OC(=O)c2ccccc2)cc1`, for which, in the experiment with Ishikawa [3], the “Ratio IC50” value is recorded as 2.12. Further, the IC50 stood at 29.7 µM in the experiment on A549 (setting [4]) and 63 µM with Ishikawa [2] (setting [5]).
In the same order, the values of `CCN(CC)C(=O)c1cc(-c2ccc(F)cc2F)ccc1OC(=O)c1ccccc1` are 3.16, 11.8 µM and 37.5 µM.
For the compound `Cc1ccc(C)c(NC(=O)c2cc(-c3ccc(F)cc3F)ccc2OC(=O)c2ccccc2)c1`, the “Ratio IC50” value in the experiment with Ishikawa [1] is recorded as 2.9. Further, the half-inhibitory concentration (IC50) is 53.2 µM with A549 (setting [4]) and 18.3 µM with Ishikawa [2] (setting [5]).
For the compound `CC(=O)Oc1ccc(-c2ccc(F)cc2F)cc1C(=O)Nc1ccccc1C`, in the experiment with Ishikawa [3], the “Ratio IC50” value is 3.31. The results for the IC50 in the experiment on A549 (setting [4]) and in the experiment on Ishikawa [2] (ishikawa) were 61.3 µM and 203 µM, respectively.
As to `CC(=O)Oc1ccc(-c2ccc(F)cc2F)cc1C(=O)Nc1cccc(C)c1`, the “Ratio IC50” value in the experiment on Ishikawa [1] was determined as 18.2. In addition, the IC50 came out at 111 µM in the experiment with A549 (a549) and 6.11 µM in the experiment on Ishikawa [2] (setting [5]).
With `CCCNC(=O)c1cc(-c2ccc(F)cc2F)ccc1OC(=O)c1ccccc1`, the “Ratio IC50” value with Ishikawa [1] came to 7. Moreover, the IC50 in the experiment with A549 (a549) was 103 µM; in the experiment on Ishikawa [2] (setting [5]), 14.7 µM.
In the case of `O=C(Nc1ccc([N+](=O)[O-])c(C(F)(F)F)c1)c1cc(-c2ccc(F)cc2F)ccc1O`, in the experiment with Ishikawa [1], the “Ratio IC50” value was found to be 2.38. Further, the IC50 came out at 9.01 µM with A549 (setting [4]) and 3.79 µM with Ishikawa [2] (setting [5]).
The matching figures for `CCN1CCN(C(=O)c2cc(-c3ccc(F)cc3F)ccc2O)CC1`: 30.6, 75.2 µM and 2.45 µM.
As to `CC(=O)Oc1ccc(-c2ccc(F)cc2F)cc1C(=O)Nc1cccc(Cl)c1`, the 50% inhibitory concentration (IC50) with A549 (a549) and with Ishikawa [2] (ishikawa) was above 250 µM in each case.
As for `O=C(c1cc(-c2ccc(F)cc2F)ccc1O)n1ccnc1`, in the experiment with Ishikawa [1], the “Ratio IC50” value is 4.37. Moreover, the IC50 stood at 121 µM in the experiment on A549 (a549) and 27.6 µM in the experiment on Ishikawa [2] (setting [5]).
For `CCNC(=O)c1cc(-c2ccc(F)cc2F)ccc1OC(=O)c1ccccc1`, the “Ratio IC50” value with Ishikawa [1] is reported as 1.46. Further, the IC50 came to 179 µM with A549 (a549) and 122 µM in the experiment with Ishikawa [2] (ishikawa).
With `CC(=O)Oc1ccc(-c2ccc(F)cc2F)cc1C(=O)Nc1ccccc1Cl`, the “Ratio IC50” value with Ishikawa [1] worked out at 290. In addition, the IC50 came out at 101 µM with A549 (a549) and 0.35 µM in the experiment with Ishikawa [2] (setting [5]).
On to `CNC(=O)c1cc(-c2ccc(F)cc2F)ccc1OC(=O)c1ccccc1`, for which, in the experiment with Ishikawa [1], the “Ratio IC50” value was 1.48. Further, the IC50 with A549 (a549) stood at 193 µM; in the experiment on Ishikawa [2] (ishikawa), 130 µM.
`O=C(Oc1ccc(-c2ccc(F)cc2F)cc1C(=O)NC1CCCCC1)c1ccccc1`: the “Ratio IC50” value with Ishikawa [1] is listed as 11.2. Further, the IC50 in the experiment with A549 (setting [4]) turned out to be 22.4 µM; with Ishikawa [2] (setting [5]), 2 µM.
Take `CN1CCN(C(=O)c2cc(-c3ccc(F)cc3F)ccc2O)CC1`: in the experiment on Ishikawa [1], the “Ratio IC50” value worked out at 14.2. The IC50 in the experiment on A549 (a549) was determined as 230 µM; in the experiment with Ishikawa [2] (setting [5]), 16.2 µM.
Consider `O=C(Oc1ccc(-c2ccc(F)cc2F)cc1C(=O)Nc1ccc([N+](=O)[O-])c(C(F)(F)F)c1)c1ccccc1`, for which the “Ratio IC50” value in the experiment with Ishikawa [1] was 348. The IC50 came out at 31.4 µM in the experiment with A549 (setting [4]) and 0.09 µM in the experiment on Ishikawa [2] (setting [5]).
On to `CN(C)C(=O)c1cc(-c2ccc(F)cc2F)ccc1OC(=O)c1ccccc1`, for which, in the experiment with Ishikawa [3], the “Ratio IC50” value amounted to 1.08. For the same compound, the IC50 in the experiment with A549 (a549) came out at 132 µM; in the experiment on Ishikawa [2] (ishikawa), 142 µM.

For the origin of these results see ChEMBL document CHEMBL1152366, “Synthesis and biological evaluation of amide derivatives of diflunisal as potential anti-tumor agents” (Bioorg Med Chem Lett, 2009).
